Measurements as given in patent publication US20140378551A1, “Composition for the Prophylactic Treatment of Neuropathic Pain” (Universite d'Auvergne, priority 2011, published 2014).
Structures can show the parent of a compound that is named as a salt.

What was measured:
[1] = test system: Tyr^1472 residue of the NR2B sub-unit of the NMDA receptor; assay: Chronic intrathecal treatment, phosphorylation of Tyr1472 residue in diabetes pain context; format: in vivo; conditions: chronic treatment administered intrathecally
From the text: (§1) It is relatively better tolerated by patients.

[2] = test system: mechanical hyperalgesia induced by diabetes; assay: Chronic intrathecal treatment, mechanical hyperalgesia induced by diabetes; format: in vivo; conditions: chronic treatment administered intrathecally
From the text: as §1

[3] = doses of 5 to 30 mg memantine hydrochloride (Sang et al., 2002); cited from earlier work

Structure (SMILES)	phosphorylation of the Tyr1472 residue [1]	mechanical hyperalgesia induced by diabetes [2]	tolerance by patients [3]
CC(C)(C)n1nc(-c2ccc(Cl)cc2)c2c(N)ncnc21 [PP2, 4-amino-5-(4-chlorophenyl)-7-(dimethylethyl) pyrazolo [3,4-d] pyrimidine]	reduces phosphorylation of the Tyr^1472 residue	abolishes the mechanical hyperalgesia induced by diabetes	–
CC12CC3CC(C)(C1)CC(N)(C3)C2 [memantine hydrochloride]	–	–	well supported and tolerated by the patients
